Entries after “also recorded” stand apart in the source; their conditions may differ.
How the values were obtained:
[1] = system: rabbit embryos (ROSA26 like locus, RLL); assay: Cas9 mediated RLL-EGFP knock-in in rabbit embryos in vitro; assay type: cell-based
Experimental: (§1) In one embodiment, we designed sgRNA targeting a ROSA26 like locus (RLL) in the rabbit genome (FIG. 2E). We next determined the effects of SCR7, an NHEJ inhibitor, and RS-1, an HDR enhancer on the knock-in success rates. Donor template DNAs were co-microinjected with Cas9 mRNA and sgRNA for RLL locus. After injection, the embryos were treated for 20 h in a serial concentration of SCR7: 0 μM (control), 20 μM, 40 μM, and 80 μM, or in RS-1 at 0 μM (control), 7.5 μM, and 15 μM.
(§2) In one embodiment, we microinjected 79 embryos with RAD51 mRNA, in addition to sgRNA, Cas9 mRNA and donor DNAs (FIG. 3A). RAD51 recombinase is a key player for homologous recombination and the repair of DNA DSBs (reference 13). Since it has been reported that RS-1 stimulates RAD51 (reference 12), we reasoned that including RAD51 mRNA in the microinjection mix would yield similar improvements on the knock-in efficiency as achieved with RS-1.

[2] = system: rabbit embryos; assay: Embryo development (blastocyst rate) after microinjection and treatment; assay type: cell-based; conditions: 20 h; for blastocyst development: control 61.2%
Experimental: as §1, §2

[3] = system: rabbit embryos (CFTR locus); assay: Cas9 mediated knock-in of CFTRdelF508 to rabbit CFTR locus in embryos in vitro; assay type: cell-based; conditions: CFTRdelF508, Cas9, RS-1 7.5 μM; control 13%
Description: In another embodiment, we tested the effects of RS-1 supplementation on Cas9 mediated knock-in of CFTRdelF508, the most frequent mutation type identified in human cystic fibrosis (CF) patients, to the rabbit CFTR locus (FIG. 4).

[4] = system: rabbit embryos (rbApoAI locus); assay: TALEN mediated knock-in of hApoAII to rbApoAI locus in embryos in vitro; assay type: cell-based; conditions: RS-1 7.5 μM, control 7%
Description: In another embodiment, we tested the effects of RS-1 in a TALEN mediated knock-in system. We designed and validated TALEN pairs targeting rbApoAI locus for knocking in the hApoAII coding sequence (FIG. 2B).

[5] = system: rabbit RLL; assay: Cas9 mediated RLL-EGFP knock-in animal production (embryo transfer); assay type: in vivo; conditions: RS-1 7.5 μM
Experimental: In one embodiment, we used RS-1 at 7.5 μM for the in vivo experiments. The sgRNA and donor DNA were used for knocking in EGFP to the rabbit RLL.
In the control group, we transferred a total of 373 embryos to synchronized recipient rabbits and obtained 43 kits. Twenty-nine of these 43 kits (67%) carried indel alleles but with on knock-in alleles. Three are proven as knock-in founders after PCR and sequencing (FIG. 2A). Of note, these three knock-in founders also carry indel alleles. The overall knock-in efficiency is 0.8% calculated by total knock-in founders/total embryos transferred, or 7.0% calculated by total knock-in founders/total kits born.
In the RS-1 treatment group (FIG. 2A), we transferred 146 embryos and obtained 38 kits, 18 of which carried indel but no knock-in alleles (47%). Similar to the in vitro results, the knock-in success rate was multifold higher than that in the control group. A total of 10 knock-in founders were produced, with the knock-in efficiency of 6.8% calculated by total knock-in founders/total embryos transferred, or 26.3% calculated by total knock-in founders/total kits born.

[6] = system: rbApoAI locus; assay: TALEN mediated hApoAII knock-in animal production (embryo transfer); assay type: in vivo, rabbit; conditions: RS-1 treatment
Description: In another embodiment, we tested RS-1 on the TALEN system in vivo. The same TALEN pairs and donor DNAs used in the in vitro work were used to product hApoAII knock-in animals.
Without RS-1 treatment, only one founder animal was produced out of 227 embryos transferred (FIG. 2A). The knock-in efficiency was 0.4% calculated by total knock-in founders/total embryos transferred or 6.3% calculated by total knock-in founders/total kits born.
After RS-1 treatment, we transferred a total of 145 embryos and obtained 17 kits. Seven out of 17 kits carried indel but no knock-in alleles (41%).

[7] = system: RLL-EGFP knock-in founder rabbits; assay: Germline transmission and allele distribution in embryos parented by RLL-EGFP founders; assay type: in vivo, rabbit
Description: (§3) At the time of submitting this manuscript, five RLL-EGFP founders, three from the RS-1 treatment group, two from the non-treatment group, have reached sexual maturity. We bred these RLL-EGFP founder animals with WT counterparts.
To ultimately determine the frequencies of different types of alleles (i.e. WT, indel and knock-in) in the germ cells of knock-in animals, we used WT animals to breed with five RLL knock-in founders, 2 derived without RS-1 treatment and the other 3 with RS-1 treatment. Embryos were produced from founders of the RS-1 treated group (n=72) and the non-treated group (n=66), sequenced, and categorized as WT, indel, or knock-in based on the allele sequence (FIG. 2I). Similar percentage of WT alleles (17 vs. 18%) are found between these two groups. […] It appears that knock-in events take place at the expense of KO because the overall mutation rates (indel+knock-in) were similar between these two groups.

[8] = system: founder rabbits; assay: Health and reproduction of founder animals; assay type: in vivo
Description: as §3
In sum, RS-1 is effective on improving knock-in rates in both the TALEN and the Cas9 mediated genome editing systems.

O=c1[nH]c(=S)[nH]c(N=Cc2ccccc2)c1N=Cc1ccccc1 [SCR7]
effect on overall knock-in efficiency ([1]; SCR7 20, 40, 80 μM for 20 h vs control): minimal effects; also recorded: no significant effects
overall knock-in efficiency ([1]; SCR7 treatment groups 20-80 μM, 20 h, control 7.1%): 7.7-9.4%
effect on embryo development ([2]; SCR7 20, 40, 80 μM, judged by blastocyst rates): no effects on embryo development
blastocyst rate ([2]; SCR7 treatment conditions (up to 80 μM)): 62-72%

O=C(Nc1ccc(Br)cc1)c1ccc(Br)c(S(=O)(=O)NCc2ccccc2)c1 [RS-1]
knock-in rate ([1]; RS-1 7.5 μM, 20 h, control 4.8%): 26.1%
knock-in efficiency ([1]; RS-1 15 μM, 20 h, control 4.8%): 5.4%
increase of knock-in efficiency ([1]; RS-1 at optimal concentration 7.5 μM, different loci (RLL, ApoAI, CFTR), in vitro): 2- to 5 fold
blastocyst development ([2]; RS-1 7.5 μM): 57.6%
blastocyst development ([2]; RS-1 15 μM): 82.2%
percentage of embryos carrying knock-in alleles [3]: 30%
percentage of embryos carrying knock-in alleles [4]: 15%
kits carrying indel but no knock-in alleles ([5]; 18 of 38 kits, control 67%): 47%
knock-in efficiency, total knock-in founders/total embryos transferred ([5]; Cas9, control 0.8%): 6.8%
knock-in efficiency, total knock-in founders/total kits born ([5]; Cas9, control 7.0%): 26.3%
kits carrying indel but no knock-in alleles ([6]; 7 of 17 kits): 41%
knock-in efficiency, total knock-in founders/total embryos transferred ([6]; control 0.4%): 2.1%
knock-in efficiency, total knock-in founders/total kits born ([6]; control 6.3%): 17.6%
percentage of WT alleles ([7]; embryos (n=72) parented by founders of RS-1 treated group, other group 18%): 17%
embryos carrying the knock-in allele (knock-in frequency at allele level) ([7]; embryos (n=72) parented by founders of RS-1 treatment group bred with WT, non-treated 14%): 33%
germline transmitting founder animals ([7]; three animals of RS-1 treatment group, non-treatment 50%): 100%
abnormalities in founder animals ([8]; RLL-EGFP and hApoAII founders derived from RS-1 treatment): No abnormalities
toxic effects on overall animal health and reproduction ([8]; RS-1 treatment of embryos): does not appear to have any toxic effects
